Assay results as given in patent publication US20030045541A1, “GABA-Receptor modulators with NMDA-Antagonistic activity” (priority 2001, published 2003).

Columns and labels:
NMDA receptor = test: Isolated NMDA portion of EPSCs (10 μm NBQX applied); assay type: cell-based, Wistar; conditions: 10 μm of NBQX on isolated EPSCs, 1 μm of compound; n=7
Procedure: (§1) The measurements were produced on cultivated neurons of Wistar embryos on the eighteenth day of gestation. After the preparation, the neurons were grown on small plates. To this end, small cover glasses for microscopic preparations with a diameter of 12 mm (assistant) were used. In each case four of the small cover glasses were transferred to a small plastic dish (Nuncion).
(§2) As preparation media, the following solutions were used: GBSS (Grey's buffered salt solution, Sigma) supplemented with 10 mmol of HEPES (N-2-hydroxyethyl-piperazine-N-2-ethanesulfonic acid, Sigma), adjusted to pH 7.3 with NaOH (Sigma). […]
(§3) The measurements were carried out at room temperature. […] The thus modulated signals were visualized by means of a storage oscilloscope and recorded with a thermal plotter. At the same time, the signals were detected via a […] and recorded on a videotape. The stored data were later played back, digitalized again and then evaluated “offline” with a PC. […]
(§4) Excitatory post-synaptic flows (EPSCs) were isolated by adding the GABAA-receptor antagonists bicuculline (20 μm) and the GABAA-receptor antagonist picrotoxin (10 μm) that has an allosteric effect. […] The pure EPSCs that can now be detected could be blocked completely by adding 10 μm of NBQX and 30 μm of APV and thus are purely glutamatergic. […]

[1] = tested on: primary cell cultures of cortical neurons of rats; test: Oxygen and glucose deprivation (OGD) model, LDH level in the medium; assay type: cell-based; conditions: for LDH level: OGD, after 24 hours, OGD control 25.1
Procedure: The measurements were performed on primary cell cultures of cortical neurons of rats. After the cells were grown in culture, the following test was performed:
Glucose and oxygen were simultaneously removed from the culture solution. This model is a definitely sturdy model, which simulates the conditions during a very serious and very extensive stroke. In the zero comparison, the culture solution was left unchanged (BSS=balanced salt solution). In the control, oxygen and glucose were removed (OGD=oxygen and glucose deprivation); in the test group, Abecarnil was added simultaneously to the oxygen and glucose removal.
As damage parameters for the neurons, the LDH (lactate-dehydrogenase) level in the solution was measured by the cells. LDH is a definitely reliable stress parameter for the cells. The stronger the neuronal stress is or the more cells are already ruined, the more the LDH levels in the medium increase. From a pharmaceutical agent with a neuroprotective effect, it can be expected that it reduces the LDH level in the medium.
In FIG. 1, the values of such a measurement were depicted. If the LDH levels were below OGD 25.1, they were 11.0 with 0.1 μm of Abecarnil; 6.2 with 1 μm of Abecarnil; 14.9 with 10 μm of Abecarnil, and 15 with 100 μm of Abecarnil (after 24 hours). In the case of an Abecarnil concentration of 1 μm, this corresponds to an LDH reduction of over 75%!

glutamatergic EPSCs = test: Excitatory post-synaptic flows (EPSCs), patch-clamp on cultivated neurons; assay type: cell-based, Wistar; conditions: P<0.05
Procedure: as §1, §2, §3
Excitatory post-synaptic flows (EPSCs) were isolated by adding the GABAA-receptor antagonists bicuculline (20 μm) and the GABAA-receptor antagonist picrotoxin (10 μm) that has an allosteric effect. […] The pure EPSCs that can now be detected could be blocked completely by adding 10 μm of NBQX and 30 μm of APV and thus are purely glutamatergic.

[2] = tested on: GABAA-receptor-mediated IPSCs; test: Inhibitory post-synaptic flows (IPSCs), patch-clamp on cultivated neurons; assay type: cell-based, Wistar
Procedure: as §1
As preparation media, the following solutions were used: GBSS (Grey's buffered salt solution, Sigma) supplemented with 10 mmol of HEPES (N-2-hydroxyethyl-piperazine-N-2-ethanesulfonic acid, Sigma), adjusted to pH 7.3 with NaOH (Sigma). As culture media, the following were used: DMEM (Sigma), glucose-containing, equine serum 10% (Sigma) and glutamine. The cells were generally divided so that at the beginning of the culture, 50,000 cells per small plate were present. The medium was changed according to the preparation after 24 hours and then changed after three days in each case. Synaptic spontaneous activity developed generally starting from the tenth day in vitro.
The extracellular measuring solution had the following composition (in mmol): NaCl 140; KCl 5.4; CaCl2 2; HEPES 10; MgCl 1; glucose 25. The pH was set at 7.4 with NaOH. IPSCs were isolated by adding 1,2,3,4,-tetrahydro-6-nitro-2,3-di-oxo-benzo-quinoxaline-7-sulfonamide (NBQX 10 μm) and DL-2-amino-5-phosphonovaleric acid (±-APV 30 μm). EPSCs were isolated by adding bicuculline (10 μm) and picrotoxin (20 μm). In the examination of the EPSCs, a ringer solution without MgCl2 was used. The pipette solution had the following composition (in mmol): KCl 120; MgCl2 2; CaCl2 1; HEPES 10; EGTA 11; glucose 20; the pH was 7.2.
as §3

AMPA-ergic activity = test: Isolated AMPA-ergic activity of EPSCs (30 μm APV applied); assay type: cell-based, Wistar; conditions: 30 μm of APV on isolated EPSCs; n=3
Procedure: as §1, §2, §3, §4

COCc1c(C(=O)OC(C)C)ncc2[nH]c3ccc(OCc4ccccc4)cc3c12 [Abecarnil, 6-benzyloxy-4-methoxymethyl-β-carboline-3-carboxylic acid isopropyl ester]
effect on isolated NMDA portion of EPSC activity (NMDA receptor): completely blocked
LDH level ([1]; 0.1 μm of Abecarnil): 11.0
LDH level ([1]; 1 μm of Abecarnil): 6.2
LDH reduction ([1]; 1 μm of Abecarnil, versus OGD): over 75%
LDH level ([1]; 10 μm of Abecarnil): 14.9
LDH level ([1]; 100 μm of Abecarnil): 15
EPSC amplitude, % of the starting value (glutamatergic EPSCs): 81.2±17.8%
EPSC frequency, % of the starting value (glutamatergic EPSCs): 32.6±19.8%
slow time constant of the averaged IPSCs (τslow), % of the starting value ([2]; P<0.05): 289.7±180.9%
IPSC frequency, % of the starting value ([2]; n=10, P<0.05): 33.8±24.7%
quick time constant of the averaged IPSCs (τfast), % of the starting value ([2]; no statistical significance): 143.9±51.0%
effect on isolated AMPA-ergic activity (AMPA-ergic activity): no effect
